Measured values as given in patent US20250002450A1, “CATIONIC STEROID COMPOUNDS, METHOD OF OBTAINING THEREOF, FORMULATIONS COMPRISING THEREOF AND THEIR USES” (UNIVERSIDADE DO PORTO, priority 2021, published 2025).

System: C. albicans ATCC 10231
Assay: Time-kill kinetics
Type: cell-based, Candida albicans
Procedure: As mentioned for antibacterial activity, time-kill plots allow the evaluation of killing of a microbial isolate over time and establishing how much exposure time is needed in order to achieve a fungicidal effect, which is usually defined by ≥99.9% killing of the initial inoculum and is determined by a 3-log10-unit decrease in CFU/mL. […] Time-kill kinetics of compound 1 were evaluated for C. albicans ATCC 10231.
Determination of killing of C. albicans ATCC 10231 over time was carried out using the time-kill method, as previously described. This assay was performed for concentrations of compound 1 ranging between 64 and 8 μg/mL. Colonies from 24 h cultures in SDA were suspended in sterile saline and adjusted to 0.5 McFarland. An aliquot of this suspension was then added to each tube of RPMI alone (control) or RPMI plus an appropriate amount of compound 1, to give an inoculum of approximately 10^5 CFU/mL in a final volume of 10 mL. Tubes were incubated at 36° C. in a water bath with shaking and vortexed prior to removing each sample for the determination of colony counts. At predetermined time points (30 min, 1, 1.5, 2, 3, 4, 6, 8, and 12 h), 100 μL aliquots were aseptically removed from each tube, serially diluted in sterile saline, and spread on SDA plates. Colony counts were determined following incubation at 36° C. for 24 to 48 h and log10 CFU/mL was plotted against time. At least three independent experiments were performed.

SMILES: C[C@H](CCC(=O)NCCN)[C@H]1CC[C@H]2[C@@H]3CC[C@@H]4C[C@H](O)CC[C@]4(C)[C@H]3C[C@H](O)[C@]12C [Compound 1, (R)—N-(2-aminoethyl)-4-((3R,5R,8R,9S,10S,12S,13R,14S,17R)-3,12-dihydroxy-10,13-dimethylhexadecahydro-1H-cyclopenta[a]phenanthren-17-yl) pentanamida]
- exposure time to fungicidal effect (≥99.9% killing) (64 μg/mL (MIC)): approximately 4 h
- additional time to produce an additional 1-log10-unit decrease in CFU/mL (64 μg/mL, after the first 2 h): 10 h
- decrease in CFU/mL each hour (64 μg/mL, until 2 h of exposure): 1 log10-unit
- type of killing (in words) (64-8 μg/mL): concentration-dependent killing
